We go through one molecule from PMC10810742 (The Journal of Biological Chemistry, 2023).

The target in the experiment is T1, CteC36–276 (Chromobacterium violaceum, UniProt Q7NY09).
T1 construct: gene cteC; residues 36-276 (disordered N-terminal 1-35 removed); SeMet form for the crystal
As to the kind of experiment: isothermal titration calorimetry. It counts as binding. Background: ITC needs no label: the signal is the heat of the interaction.

T1 sequence (Q7NY09 36-276): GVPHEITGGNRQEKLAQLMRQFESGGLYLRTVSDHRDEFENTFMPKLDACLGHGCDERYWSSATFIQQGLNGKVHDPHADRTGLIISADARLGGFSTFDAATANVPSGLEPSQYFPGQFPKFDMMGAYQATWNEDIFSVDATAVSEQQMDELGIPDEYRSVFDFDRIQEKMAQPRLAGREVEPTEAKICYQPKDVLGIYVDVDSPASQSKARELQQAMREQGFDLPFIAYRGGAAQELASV

The Kd is the equilibrium constant for the complex coming apart. The low end stands for a tighter complex, the high end for a looser complex. For `NC(=O)c1ccc[n+]([C@@H]2O[C@H](COP(=O)(O)OP(=O)(O)OC[C@H]3O[C@@H](n4cnc5c(N)ncnc54)[C@H](O)[C@@H]3O)[C@@H](O)[C@H]2O)c1` [NAD^+], binding was put at a Kd of 123 µM.
